Measurements from PubChem BioAssay (NCI).
Several values for one entry are separate records, joined by “and”; a condition that tells them apart may be missing. Equal entries are not always repeated.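 Results reflect a 48-hour exposure of cells in 96-well plates to compound at five concentrations. Abbreviation: GI50, concentration required for 50% inhibition of growth. The concentration for full growth arrest is given as TGI.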

System: MDA-MB-468 breast
Assay: growth of human tumour cells (NCI), 48 h

Structure (SMILES) | GI50 | TGI
CC(C)(C)OC(=O)N1CC(Cn2cc(C(F)(F)F)c3c(Cl)ncnc32)C1 | 1.84 µM | 3.87 µM
COc1ccc(C2=CC(c3ccc(Oc4ccnc5cc(Cl)ccc45)c(OC)c3)c3c(nc(OC)[nH]c3=O)N2)cc1 (stereo unspecified) | 5.22 µM | > 100 µM
CN1C(=O)N(C)C2C1NN=c1s/c(=C\c3c[nH]c4ccccc34)c(=O)n12 (stereo unspecified) | 0.0359 µM | > 86.8 µM
C=CC[N+]1(CCO)CCN=C1CCCCCCCCCCCCC (stereo unspecified) | 1.18 µM | 2.55 µM
O=C1CCC(N2C(=O)c3ccc(NS(=O)(=O)c4ccccc4OC(F)(F)F)cc3C2=O)C(=O)N1 (stereo unspecified) | 0.0536 µM | 2.13 µM
C=CC(=O)NCCOc1cccc(Nc2cc(NCCCNC(=O)C3CCC3)c(Br)cn2)c1 | 1.42 µM | 5.08 µM
CCN1CCC2(CC1)NC(=O)c1c(c3ccc(Cl)c(Cl)c3n1C)C2C#N (stereo unspecified) | 1.35 µM | 2.91 µM
O=C(CCc1ccco1)NC1CCN(CC2(c3ccc(Cl)cc3)CCC2)CC1 | 5.28 µM | 18.9 µM
N=C(N)c1ccc(-c2ccc(-c3cncc4ccccc34)s2)cc1F | 1.28 µM | 2.95 µM
COc1ccc2c(O)c(/C=C3\N=Nc4ncccc43)oc2c1C[C@H]1CCNC[C@H]1F | 0.246 µM | 1.95 µM
COc1cc(/C=C2\CCCC3C2=Nc2ccccc2NC3c2cc(OC)c(OC)c(OC)c2)cc(OC)c1OC (stereo unspecified) | 1.71 µM | 6.1 µM
CCN1/C(=C/C=C/C=C/c2sc3ccccc3[n+]2CC)Sc2ccccc21 | 0.117 µM | 0.989 µM
CC(C)(C)CC(C)(C)N(CSc1ccc(Cl)cc1)CSc1ccc(Cl)cc1 | 2.61 µM | 12.4 µM
CCOC(=O)/C(=C/c1ccccc1)C(=O)c1ccccc1 | 3.77 µM | 13.8 µM
COc1ccccc1-c1ccc2nc(NC(=O)Nc3cc(C(F)(F)F)cc(C(F)(F)F)c3)sc2c1 | 1.52 µM | 5.43 µM
OC(COc1cccc2ccccc12)CN1CCN(c2ccc(Cl)cc2)CC1 (stereo unspecified) | 36.4 µM | > 100 µM
CN(C)CCN1C(=O)c2cccc3c(N)ccc(c23)C1=O | 8.4 µM | > 25 µM
COc1cc(-c2nc3ccccc3[nH]2)ccc1OCC(=O)N=Nc1c(O)[nH]c2ccc(Cl)cc12 | 1.74 µM | 3.45 µM
NC(N)=Nc1ccc(Oc2cccc(Nc3ccc(Cl)c(C(F)(F)F)c3)c2)cc1 | 1.48 µM | 3.48 µM
COc1ccc(-c2nn(-c3ccc(NC(=O)Nc4ccc(Cl)c(Cl)c4)cc3)cc2-c2ccncc2)cc1Cl | 1.61 µM | 4.48 µM
Fc1c[c-]c(-c2ccccn2)c(F)c1.[CH3-].[Pt+2].c1ccc([PH+](c2ccccc2)c2ccccn2)cc1 | 1.4 µM | 4.27 µM
COc1cc(-c2nc(-c3nnc(-c4ccc(F)c(Cl)c4)o3)c3ccccn23)cc(OC)c1OC | 3.39 µM | > 100 µM
O=[N+]([O-])c1cccc(/C=C/c2ccccn2)c1 | 2.25 µM | > 100 µM

Structure (SMILES) | GI50 | TGI
COc1cc(-c2cc(-c3nc4cc(Cl)c(Cl)cc4[nH]3)[nH]n2)cc(OC)c1OC | 3.49 µM | 16.2 µM
COc1cccc2c1C(=O)c1c(O)c3c(c(O)c1C2=O)C[C@@](O)(C(=O)CO)C[C@@H]3OC1CC(OC(C)=O)C(OC(C)=O)C(C)O1 (stereo partly specified) | 0.53 µM | 5.06 µM
COc1ccc2c(c1)C(=O)c1c-2c(OCCN(C)C)nc2cc(OC)ccc12 | 1.87 µM | 8.57 µM
O=C1OCC2=C1C(c1cccc(C(F)(F)F)c1)c1cc3c(cc1N2CCO)OCO3 (stereo unspecified) | 0.244 µM | 2.16 µM
O=C(C[C@@]1(O)C(=O)Nc2c(Cl)ccc(Cl)c21)c1ccc(C2CC2)cc1 | 0.221 µM | 18.6 µM
O=C(Nc1ccc(Cl)cc1F)c1cc(F)ccc1O | 1.27 µM | 5.18 µM
COc1cc2cn3c4ccc(O)cc4nc(N)c3c2cc1OC | 0.313 µM | 2.21 µM
CCN(CC)S(=O)(=O)c1ccc(-c2nc(C(Cl)Cl)nc3cc(C)nn23)cc1 | 1.72 µM | 4.44 µM
C[C@@H]1[C@H]2[C@H](C=C3[C@@H]4CC[C@H]5Cc6nc7c(nc6C[C@]5(C)[C@H]4C[C@@H](O)[C@@]32C)C[C@@H]2CC[C@H]3C4=C[C@@H]5O[C@@]6(CC[C@](C)(CO)O6)[C@@H](C)[C@@]5(O)[C@@]4(C)[C@H](O)C[C@@H]3[C@@]2(C)C7)O[C@]12CCC(C)(C)O2 | 0.961 µM | 20.7 µM
Cc1cc(Nc2cc(CN3CCOCC3)c3nc(C)c(Cc4ccc(Cl)cc4F)n3n2)n[nH]1 | 0.441 µM | 2.95 µM
NC(=O)c1ccc2nc(-c3ccc(C4(N)CCC4)cc3)c(-c3ccccc3)n2n1 | 0.169 µM | 10.3 µM
CSC1=Nc2c(c(C)c(-c3ccccc3)n2CCCCl)C2=NC(=O)CN12 | 3.13 µM | 13.1 µM
COc1cc(OC)cc(-c2ccc(-c3ccc(C(=N)N)s3)s2)c1 | 0.304 µM | 1.16 µM
Cc1c2cnccc2c(C)c2c1c1cc(C(=O)O)ccc1n2C | 0.837 µM | 3.07 µM
C[C@H](C(=O)N[C@@H](Cc1ccc(-c2ccccc2)cc1)C(=O)NC1CC(C)(C)N(C)C(C)(C)C1)c1ccc(-c2ccccc2)c(F)c1 | 1.24 µM | 2.66 µM
Cc1cc(O)c(C2=NN(c3ccc(S(N)(=O)=O)cc3)C(c3ccccc3O)C2)cc1Cl (stereo unspecified) | 2.26 µM | 5.7 µM
COc1ccc(Cn2cc3c(c2-c2cc(OC)c(OC)c(OC)c2)CCCc2cnoc2-3)cc1N | 0.54 µM | > 100 µM
COc1nc2c(cc1S(=O)(=O)c1ccccc1)CCc1c-2cnn1Cc1ccccc1 | 6.45 µM | > 100 µM
O=C1c2ccc3c4c(ccc(c24)C(=O)N1CCCNCc1ccccc1)C(=O)N(CCCNCc1ccccc1)C3=O | 0.143 µM | 0.285 µM
FC(F)(F)c1[nH]ncc1-c1nc2c(N3CCCCC3)cc3[nH]ncc3c2c2c1CCCC2 | 0.691 µM | 2.45 µM
COc1ccc(-c2ccc3ncc4c(c3c2)n(-c2ccc(N3CCNCC3)c(C(F)(F)F)c2)c(=O)n4C)cn1 | < 0.01 µM and 0.00318 µM | 0.0194 µM and 0.0199 µM
COc1ccc2[nH]c(-c3ccccc3)c(C=C(C#N)C#N)c2c1 | 2.13 µM | 49.9 µM
Cc1cc(C(=O)N[C@@H](CCC(=O)O)C(=O)O)sc1CC[C@@H]1CNc2nc(N)[nH]c(=O)c2C1 | 0.0333 µM | 
